How the values were obtained:
Type in all cases: in vivo, rat
[1] = test system: MDA; assay: Jejunal MDA concentration in rats fed a low-zinc diet; conditions: male Slc/SD rats, gavage on days 5 and 6, result in words, low-zinc diet group 6.67±0.47, standard diet group 4.53±0.26 mg/g of jejunum
Protocol: (§1) Male Slc/SD rats (4 weeks old) were used as experimental animals. (Grouping and Diet)
(§2) The rats were divided into the following groups, and the diets were as follows.
(§3) Low-zinc diet group (n=6): Free intake of a low-zinc diet (The concentration of zinc in the low-zinc diet: 3.9 mg zinc/kg diet) Note that the zinc concentration of the low-zinc diet is assumed to be 2.5 mg zinc/kg diet to 10 mg zinc/kg diet.)
(§4) From the start date of the regular breeding, the standard diet was fed to the standard diet group, and the low-zinc diet was fed to four groups including the low-zinc diet group, the low-zinc diet+precipitation fraction group, the low-zinc diet+supernatant fraction group, and the low-zinc diet+synthetic DHMBA group. They were fed by free intake. On days 5 and 6, 0.5% methyl cellulose solution was given to the standard diet group and the low-zinc diet group by gavage administration. The Pacific oyster extraction supernatant fraction was given to the low-zinc diet+supernatant fraction group by gavage administration. The Pacific oyster extraction precipitation fraction was given to the low-zinc diet+precipitation fraction group by gavage administration. The synthetic DHMBA was given to the low-zinc diet+synthetic DHMBA group by gavage administration. […]
(§5) The jejunal SOD concentration, MDA concentration, 8-OHdG concentration, ZIP4 concentration, and serum zinc concentration were measured. […]

[2] = Serum zinc concentration in rats fed a low-zinc diet; conditions: male Slc/SD rats, gavage on days 5 and 6, result in words
Protocol: as §1, §2, §3, §4, §5

[3] = test system: 8-OHdG; assay: Jejunal 8-OHdG concentration in rats fed a low-zinc diet; conditions: male Slc/SD rats, low-zinc diet 7 days, gavage on days 5 and 6 (0.5 mL/100 g B.W.), organs harvested 24 hours after day 6 dose; low-zinc diet group 9.31±0.29, standard diet group 6.82±0.56
Protocol: as §1, §2, §3, §4, §5

[4] = test system: ZIP4; assay: Jejunal ZIP4 concentration in rats fed a low-zinc diet; conditions: male Slc/SD rats, low-zinc diet 7 days, gavage on days 5 and 6, organs harvested 24 hours after day 6 dose; low-zinc diet group 4.38±0.33, standard diet group 8.89±0.71
Protocol: as §1, §2, §3, §4, §5

COc1c(O)cc(CO)cc1O [synthetic DHMBA, 3,5-dihydroxy-4-methoxybenzyl alcohol]
jejunal MDA concentration compared with low-zinc diet group [1]: decrease in MDA
serum zinc concentration compared with low-zinc diet group [2]: significantly higher
jejunal 8-OHdG concentration [3]: 7.81±0.49 ng/g of jejunum
jejunal ZIP4 concentration [4]: 6.44 ± 0.76 pg/mg

From US20250325498A1, “8-OHdG CONCENTRATION DECREASE ACCELERATOR, MALONDIALDEHYDE (MDA) CONCENTRATION DECREASE ACCELERATOR, ZIP4 CONCENTRATION INCREASE ACCELERATOR, OR SERUM ZINC CONCENTRATION INCREASE ACCELERATOR FOR JEJUNUM” (WATANABE OYSTER LABORATORY, CO., LTD., priority 2022, published 2025)
